In patent US8765684B2, “Solid materials of {[(2S,5R,8S,11S)-5-benzyl-11-(3-guanidino-propyl)-8-isopropyl-7-methyl-3,6,9,12,15-pentaoxo-1,4,7,10,13-pentaaza-cyclopentadec-2-yl]-acetic acid} and methods for obtaining them” (Merck Patent GmbH, priority 2009, dated 2014):
Where “and” joins values, the source holds several entries; their conditions need not be identical. Equal values may be shown once.

Assays:
[1] = assay type: physicochemical
Method: In the respective dynamic vapor sorption experiments discussed in more detail herein using ethanol vapor at 98% relative saturation for the Dihydrate-diethanolate/crystalline form S2 at 25° C. starting with the tetrahydrate a mass gain of 17% has been obtained. This is in good agreement with the above shown results for the tetraethanolate (calculated 117.0%, i.e. 17.0% of mass gain). Preferably, the tetrasolvates according to the invention, more preferably the Dihydrate-diethanolate, the Dihydrate-ethanolate, the Dihydrate-monoethanolate, the Diethanolate and/or the desolvates thereof, and especially the crystalline form S2 can be characterised, alternatively or additionally, by dynamic vapour experiments using water vapour and/or methanol vapour. The results can be obtained by standard techniques as described in Rolf Hilfiker, ‘Polymorphism in the Pharmaceutical Industry’, Wiley-VCH. Weinheim 2006 (Chapter 9: Water Vapour Sorption, and references therein). […] Upon water vapour adsorption, an assembly of water molecules in the lattice is observed, with a maximum weight gain of approx. 6.4 wt % at elevated rh. In the second desorption cycle a total mass loss of approx. 9.2 wt % is observed. For a Dihydrate Di-Ethanolate of the compound of formula I, the calculated Ethanol content equals 12.5 wt %. […] Thus, crystalline form S2 is a crystalline Ethanol solvate form or a mixed water/ethanol solvate form, preferably selected from the Dihydrate-ethanolate, the Dihydrate-monoethanolate, the Diethanolate and/or the desolvates thereof, which can be obtained e.g. via Ethanol Vapour Sorption, preferably via Ethanol Vapour Sorption starting with a hydrate structure, such as the hydrates according to the invention and especially the tetrahydrate according to the invention, i.e. crystalline form S3. From the Ethanol Vapour Sorption curve as shown in FIG. 21 and as discussed above, it can be seen that at elevated Ethanol partial pressure, approx. 17 wt % Ethanol are taken up by the sample.

[2] = Conditioning of amorphous Cilengitide under mixed water-ethanol atmospheres (stoichiometry by KF, HS-GC, NMR); assay type: physicochemical
From the text: Stoichiometries as determined by Karl-Fischer titration (KF) for quantification of water and head space gas-chromatography (HS-GC) (and nuclear magnetic resonance spectroscopy (NMR)) for quantification of ethanol are depicted in Table 3. In the table also points representing stochiometries with more than 4 molecules of water per molecule of Cilengitide are visible. As there is no space for more than 4 molecules of water in the crystal lattice excess amounts of more than 4 molecules of water represent adsorbed moisture.
Also the modifications and the lattice parameters from indexing of the diffractograms are compiled in Table 3.

[3] = Competitive slurry conversion of pseudopolymorphic form and form A1 (1:1) in Water/Methanol and Water/Ethanol mixtures; assay type: physicochemical; details: 1:1 pseudopolymorphic form + A1
Method: b) Additionally, crystalline tetrasolvates according invention and especially crystalline forms S1 and S2 can be manufactured by competitive slurry conversion experiments with a mixture of a pseudopolymorphic form (for example S1, S2, S3 or mixtures of these) with form A1 (1:1) in Water/Methanol and Water/Ethanol mixtures with different alcohol contents at different temperatures, respectively.
(§1) Approx. 20 mg of a pseudopolymorphic form (for example S1, S2, S3 or mixtures of these) and 20 mg of form A1 of Cilengitide are dispersed in 300 μl Water/alcohol mixture at 0° C. or room temperature (25° C.). The dispersion is stirred for 24 h and additionally for 3 weeks at RT (25° C.) (long-term experiment) by a magnetic stirrer and finally filtered
Approx. 20 mg of a pseudopolymorphic form (for example S1, S2, S3 or mixtures of these) and 20 mg of form A1 of Cilengitide are dispersed in 300 μl Water/alcohol mixture at 50° C. The dispersion is stirred for 24 h by a magnetic stirrer and finally filtered.
Additionally form A1 can be manufactured by competitive slurry conversion experiments with a mixture of a pseudopolymorphic form (for example S1, S2, S3 or mixtures of these) and form A1 (1:1) in Water/Methanol and Water/Ethanol mixtures with different alcohol contents at different temperatures. In the following table the conditions for the experiments leading to the pure form A1 are listed.
as §1, with “C.,” for “C. or”, “and 50° C.” for “(25° C.).”, “filtered.” for “filtered”

[4] = per 1 mol Cil, EtOH liquid phase 10 v %
[5] = per 1 mol Cil, EtOH liquid phase 20 v %
[6] = per 1 mol Cil, EtOH liquid phase 50 v %
[7] = per 1 mol Cil, EtOH liquid phase 70 v %
[8] = per 1 mol Cil, EtOH liquid phase 80 v %
[9] = per 1 mol Cil, EtOH liquid phase 85 v %
[10] = per 1 mol Cil, EtOH liquid phase 90 v %
[11] = per 1 mol Cil, EtOH liquid phase 95 v %
[12] = per 1 mol Cil, EtOH liquid phase 100 v %

Thermodynamic stability of the form [1]: thermodynamically stable form
Ethanol taken up by the sample ([1]; elevated Ethanol partial pressure, starting with a hydrate structure): approx. 17 wt %
Mass gain ([1]; ethanol vapor at 98% relative saturation, 25° C., starting with the tetrahydrate): 17%
EtOH HS-GC ([2]; EtOH liquid phase 10 v %): 3.2 wt %
H2O KF ([2]; EtOH liquid phase 10 v %): 9.5 wt %
Σ TG ([2]; EtOH liquid phase 10 v %): 12.5 wt %
EtOH HS-GC ([2]; EtOH liquid phase 20 v %): 4.3 wt %
H2O KF ([2]; EtOH liquid phase 20 v %): 8.4 wt %
Σ TG ([2]; EtOH liquid phase 20 v %): 13.0 wt %
EtOH HS-GC ([2]; EtOH liquid phase 50 v %): 6.9 wt % and 6.2 wt %
H2O KF ([2]; EtOH liquid phase 50 v %): 7.8 wt % and 6.8 wt %
Σ TG ([2]; EtOH liquid phase 50 v %): 13.7 wt % and 12.6 wt %
EtOH HS-GC ([2]; EtOH liquid phase 70 v %): 6.4 wt %
H2O KF ([2]; EtOH liquid phase 70 v %): 6.2 wt %
Σ TG ([2]; EtOH liquid phase 70 v %): 12.4 wt %
EtOH HS-GC ([2]; EtOH liquid phase 80 v %): 6.7 wt %
H2O KF ([2]; EtOH liquid phase 80 v %): 5.9 wt %
Σ TG ([2]; EtOH liquid phase 80 v %): 12.8 wt %
EtOH HS-GC ([2]; EtOH liquid phase 85 v %): 9.1 wt %
H2O KF ([2]; EtOH liquid phase 85 v %): 4.1 wt %
Σ TG ([2]; EtOH liquid phase 85 v %): 12.9 wt %
EtOH HS-GC ([2]; EtOH liquid phase 90 v %): 12.5 wt %
H2O KF ([2]; EtOH liquid phase 90 v %): 1.7 wt % and 1.2 wt %
Σ TG ([2]; EtOH liquid phase 90 v %): 13.8 wt % and 13.6 wt %
EtOH HS-GC ([2]; EtOH liquid phase 95 v %): 13.1 wt %
H2O KF ([2]; EtOH liquid phase 95 v %): 0.4 wt %
Σ TG ([2]; EtOH liquid phase 95 v %): 13.7 wt %
EtOH HS-GC ([2]; EtOH liquid phase 100 v %): 13.6 wt %
H2O KF ([2]; EtOH liquid phase 100 v %): 0.7 wt %
Σ TG ([2]; EtOH liquid phase 100 v %): 14.0 wt %
EtOH HS-GC [2, 4]: 0.5 mol
EtOH NMR [2, 4]: 0.5 mol
H2O KF [2, 4]: 3.6 mol
EtOH HS-GC [2, 5]: 0.6 mol
EtOH NMR [2, 5]: 0.7 mol
H2O KF [2, 5]: 3.1 mol
EtOH HS-GC [2, 6]: 1.0 mol and 0.9 mol
EtOH NMR [2, 6]: 1.0 mol
H2O KF [2, 6]: 3.0 mol and 2.5 mol
EtOH HS-GC [2, 7]: 0.9 mol
H2O KF [2, 7]: 2.3 mol
EtOH HS-GC [2, 8]: 1.0 mol
H2O KF [2, 8]: 2.2 mol
EtOH HS-GC [2, 9]: 1.3 mol
H2O KF [2, 9]: 1.5 mol
EtOH HS-GC [2, 10]: 1.9 mol
H2O KF [2, 10]: 0.6 mol and 0.5 mol
EtOH HS-GC [2, 11]: 1.9 mol
H2O KF [2, 11]: 0.2 mol
EtOH HS-GC [2, 12]: 2.0 mol
EtOH NMR [2, 12]: 2.0 mol
H2O KF [2, 12]: 0.3 mol
Ethanol in the mixture with Water leading to form S2 ([3]; 0° C. for 1 day): 20-80 v %
Ethanol in the mixture with Water leading to form S2 ([3]; RT for 3 weeks): 40-70 v %
Ethanol in the mixture with Water leading to form S2 ([3]; RT for 1 day): 40-80 v %
Substance: cyclo-(Arg-Gly-Asp-DPhe-NMe-Val) [crystalline form S2]
